Here are results for 1 molecule from patent US20260355171A1, “INHIBITORS AND USES THEREFOR” (priority 2022, published 2026).

The structures appear in SMILES notation. Where two headings read alike, the source gives them in different places.

Series [1] can be described thus: Mouse pharmacokinetics, IP administration. The format is in vivo. As to the method:
(§1) Pharmacokinetic parameters of compound 22 (prepared in accordance with Example 2) were determined following intravenous (IV, 3 mg/kg) and intraperitoneal (IP, 10 mg/kg) administration to male C57BL/6 mice.
(§2) IV and IP formulations were prepared separately by dissolving solid compound 22 in dimethyl sulfoxide (DMSO) prior to addition of 50 mM phosphate buffered saline (pH 6.5) using vortexing and sonication to produce a colourless solution, and giving a final DMSO concentration of 5% (v/v) for each formulation. The IV formulation was filtered through a 0.22 μm syringe filter prior to dosing, whereas the IP formulation was not filtered.
(§3) The pharmacokinetics of compound 22 was studied in non-fasted male C57BL/6 mice weighing 21.1-26.5 g. Mice had access to food and water ad libitum throughout the pre- and post-dose sampling period.
(§4) Compound 22 was dosed to mice by bolus injection into the lateral tail vein (2 mL/kg) for IV administration and by injection into the IP cavity (5 mL/kg) for IP administration. After dosing, blood samples were collected up to 24 h (n=3 mice per time point) with a maximum of three samples from each mouse via submandibular bleed (approximately 120 μL). No urine samples were collected as mice were housed in bedded cages. Blood was collected into polypropylene Eppendorf tubes containing heparin as anticoagulant. Once collected, blood samples were centrifuged immediately, supernatant plasma was removed, and stored at −80 °C until analysis by liquid chromatography-mass spectrometry (LC-MS). A summary of the bioanalytical method is included in Table 5.
(§5) Concentrations of test compound in plasma and tissue samples were determined using a liquid chromatography with tandem mass spectrometry (LCMS/MS) method validated for linearity, accuracy, precision, matrix factor and recovery (refer to Table 5).
(§6) Plasma: The plasma calibration curve was prepared by spiking aliquots of blank mouse plasma (25 μL) with test compound standard solutions (5 μL) and internal standard solution (5 μL of diazepam, 5 μg/mL in 50% acetonitrile in water). Test plasma samples (25 μL) were thawed, mixed and then spiked with internal standard solution (5 μL). Plasma protein precipitation was performed by addition of acetonitrile (3-fold volume ratio) and thorough vortex mixing. Samples were centrifuged (RCF=9391×g) for 3 minutes and the supernatant (100 μL) was collected for analysis. The analysis of blood/plasma (B/P) partitioning samples was conducted similarly as for the plasma samples, using protein precipitation with acetonitrile as described above.
(§7) The plasma concentration versus time profile was defined by the average plasma concentration at each sample time, and PK parameters were calculated using non-compartmental methods (PKSolver Version 2.0). Standard calculations for each pharmacokinetic parameter are listed below.

Series [2] relates to primary neurons. The experiment in a line: Cytotoxicity / neuronal cell death in the presence of NSP5 (PI/DAPI).
Series [3] in a line: Unbound fraction (fu) in mouse plasma. The format is in vitro ADME.
The nature of series [4]: Stability in brain and lung homogenates. The class given is in vitro ADME, mouse. As to conditions: sample processing (15 min), EDTA/potassium fluoride. As to the method: Tissue: Pre-weighed tissue samples (brain and lung) were homogenised using a gentleMACS™ Octo Dissociator (Miltenyi Biotec, Macquarie Park, Australia) in buffer containing an EDTA/potassium fluoride solution (0.1 M/4 mg/mL) as a stabilisation cocktail to minimise the potential for ex vivo degradation (3 mL cocktail/g tissue). The tissue homogenate was briefly centrifuged (RCF=79×g) for 10 seconds to separate the foam layer before transferring an aliquot of the tissue homogenate (200 μL) to a fresh Eppendorf tube for sample extraction. Calibration standards were prepared by spiking blank brain and lung homogenate (200 μL) with the solution standards (10 μL) and the internal standard (10 μL). Study samples (for all tissue types) were similarly prepared, except that acetonitrile (10 μL) was added instead of solution standards to maintain the same volume. Protein precipitation was carried out by the addition of a 3-fold volume of acetonitrile, followed by vortex mixing and centrifugation (RCF=9391×g) for 3 min to recover the supernatant for analysis.

The test system of series [5] is primary neurons. The experiment in a line: Neuronal cell death in the presence of staurosporine. The format is cell-based, mouse. As to conditions: 1 or 10 μM compound, 5 μM staurosporine. As to the method: Primary neurons were treated with 0.4, 1, 2, 10 or 50 μM of compound 2 or compound 22 (prepared according to Example 2). NSP5 was added to primary neurons at DIV11, and compound 2 or 22 was added 48 hours later. Cells were treated with propidium iodide 48 hours after compound addition. Cells were washed with PBS and fixed with 4% PFA. Cells were then washed and stained with DAPI. Images of cells were taken with ZEISS Axioscan 7 microscope slide scanner. Cell death was determined by Image J analysis, counting the death cell (red, PI)) vs all cells (blue, DAPI).
One hour after compound addition (1 or 10 μM of compound 2 or compound 22) neurons were treated with a cytotoxic agent (100 μM N-methyl-D-aspartate (NMDA), 100 μM H2O2 or 5 μM staurosporine). One hour after treatment with the cytotoxic agent, the media was replaced with fresh media and the neurons were incubated for 24 hours. A final concentration of 1 μM propidium iodide (PI) was added into the well and incubated for 5 mins. Cells were washed with phosphate-buffered saline (PBS) and then fixed with 4% PFA. Cells were then washed and stained with DAPI, and cell death determined as described above.

A short description of series [6]: Mouse pharmacokinetics, IV administration. The class given is in vivo. The protocol: as §1, §2, §3, §4, §5, §6, §7
Series [7] relates to PHP.B hSyn-NSP5-V5 adeno-associated virus. The series is described as follows: Rota-rod motor testing. The format is in vivo, mouse. As to conditions: 10 mg/kg daily, three-day testing, 15-17 days post AAV, vs Paxlovid. As to the method: In vivo testing was performed on 5-month-old female C57BL/6 wildtype mice injected intravenously with PHP.B hSyn-NSP5-V5 adeno-associated virus (AAV) and treated daily with compound 22 (10 mg/kg), Paxlovid (nirmatrelvir/ritonavir) (10 mg/kg nirmatrelvir: 3.33 mg/kg ritonavir) or a vehicle control (n=10 per group).
Motor testing was performed on the Rota-rod five times daily over a three-day testing period as previously described (refer to Ke et al. (2015) Acta Neuropathol, 130: 661-678). Motor coordination was also assessed using the hanging wire test at 14 and 22 days post injection with the AAV, which assessed the time hanging upside down on a wire grid (refer to Chan et al. (2020) Am J Path, 190(8): 1713-1722). Anxiety, disinhibition and exploratory behaviour was assessed using the elevated plus maze (EPM) test as previously described (refer to Ke et al. (2015) Acta Neuropathol, 130: 661-678).

The mark [8] stands for this setting: mouse, plasma, IP 10 mg/kg, male C57BL/6 mice.

As to `NC(=O)C1CCN(c2ncccc2CNCc2cccc3[nH]ccc23)CC1` [Compound 22], the “BA (apparent bioavailability)” value in series [1] (IP 10 mg/kg, truncated AUC0-7.5 h, likely slight underestimation, 10 mg/kg, 450 min) is listed as 47.3%. The bioavailability at 7.5 h in series [1] (mouse, plasma, ip, 10 mg/kg, truncated AUC0-7.5 h, likely slight underestimation, read-out: BA (apparent bioavailability)) was 47%. Also, in series [1] (setting [8]), the peak concentration (Cmax) worked out at 4.25 µM and the Tmax was found to be 0.25 h. The AUC(0-t) in series [1] (mouse, plasma, IP 10 mg/kg, male C57BL/6 mice, read-out: Plasma AUC0-last) is 2.56 µM·h. Moreover, the “Reduction of neuronal cell death caused by NSP5” value in series [2] (0.4, 1, 2, 10 or 50 μM, 48 hours) is on record as “selectively reduced neuronal cell death caused by NSP5”. For the same molecule, the “Cell death caused by compound” value in series [2] (therapeutic concentrations (nM to low μM)) is on record as “did not cause any cell death”. In series [3], this molecule gave a fraction unbound of 0.547. The “Stability in brain and lung homogenates” value in series [4] is reported as “stable”. Further, the “Protection from staurosporine-induced neurotoxicity” value in series [5] is on record as “did not protect”. Also, in series [6] (IV 3 mg/kg), the “Apparent blood volume of distribution” value is given as “high”, the Blood clearance entry was “moderate” and the “Duration of measurable plasma concentrations” value is 24 h. Also, the “In vivo blood clearance relative to nominal hepatic blood flow” value in series [6] (IV 3 mg/kg, mouse) is recorded as ~ 50%. The “In vivo hepatic extraction ratio” value in series [6] (IV 3 mg/kg, assuming predominantly hepatic clearance) was “moderate”. The clearance in series [6] (mouse, blood, IV 3 mg/kg, extrapolation to infinity, approximation only, read-out: Blood CL) is 60.6 mL/min/kg. For the same molecule, the Vd in series [6] (mouse, blood, IV 3 mg/kg, extrapolation to infinity, approximation only, read-out: Blood VSS) was 16.6 L/kg. Further, in series [6] (mouse, plasma, iv, 3 mg/kg, male C57BL/6 mice, terminal phase not clearly defined, approximation only, read-out: Apparent t1/2 (converted)), the half-life was ~14 h. Moreover, the AUC(0-t) in series [6] (mouse, plasma, IV 3 mg/kg, male C57BL/6 mice, read-out: Plasma AUC0-last) came out at 1.51 µM·h. Further, the AUC(0-inf) in series [6] (mouse, plasma, IV 3 mg/kg, extrapolation to infinity, approximation only, read-out: Plasma AUC0-inf) is 1.62 µM·h. Further, in series [6] (mouse, plasma, IV 3 mg/kg, extrapolation to infinity, approximation only, read-out: Plasma CL), the clearance is 84.9 mL/min/kg. For the same molecule, in series [6] (mouse, plasma, IV 3 mg/kg, extrapolation to infinity, approximation only, read-out: Plasma VSS), the Vd was 23.3 L/kg. In addition, in series [7], the “Rota-rod average time of five daily trials” value is “performed significantly better than Paxlovid-treated mice” and the “Rota-rod maximum time of five daily trials” value is recorded as “performed significantly better than Paxlovid-treated mice”.
